What was measured:
Conditions in all cases: Dosage 320
POLCO [1] = test: Post-emergence herbicidal test; assay type: in vivo, Polygonum convolvulus
VIOTR [2] = test: Pre-emergence herbicidal test; assay type: in vivo, Viola tricolor
ABUTH [3] = test: Post-emergence herbicidal test; assay type: in vivo, Abutilon theophrasti
AMARE [4] = test: Post-emergence herbicidal test; assay type: in vivo, Amaranthus retroflexus
ALOMY [5] = test: Post-emergence herbicidal test; assay type: in vivo, Alopecurus myosuroides
AMARE [6] = test: Pre-emergence herbicidal test; assay type: in vivo, Amaranthus retroflexus
STEME [7] = test: Pre-emergence herbicidal test; assay type: in vivo, Stellaria media
VIOTR [8] = test: Post-emergence herbicidal test; assay type: in vivo, Viola tricolor
LOLRI = test: Pre-emergence herbicidal test; assay type: in vivo
VERPE [9] = test: Pre-emergence herbicidal test; assay type: in vivo, Veronica persica
ALOMY [10] = test: Pre-emergence herbicidal test; assay type: in vivo, Alopecurus myosuroides
POLCO [11] = test: Pre-emergence herbicidal test; assay type: in vivo, Polygonum convolvulus
ECHCG [12] = test: Pre-emergence herbicidal test; assay type: in vivo, Echinochloa crus-galli
ECHCG [13] = test: Post-emergence herbicidal test; assay type: in vivo, Echinochloa crus-galli
STEME [14] = test: Post-emergence herbicidal test; assay type: in vivo, Stellaria media
MATIN = test: Pre-emergence herbicidal test; assay type: in vivo, Matricaria inodora
PHBPU [15] = test: Pre-emergence herbicidal test; assay type: in vivo, Pharbitis purpurea
PHBPU [16] = test: Post-emergence herbicidal test; assay type: in vivo, Pharbitis purpurea
SETVI [17] = test: Pre-emergence herbicidal test; assay type: in vivo, Setaria viridis
VERPE [18] = test: Post-emergence herbicidal test; assay type: in vivo, Veronica persica
SETVI [19] = test: Post-emergence herbicidal test; assay type: in vivo, Setaria viridis
HORMU = test: Pre-emergence herbicidal test; assay type: in vivo
ABUTH [20] = test: Pre-emergence herbicidal test; assay type: in vivo, Abutilon theophrasti

Row | SMILES | POLCO (POLCO [1]) | VIOTR (VIOTR [2]) | ABUTH (ABUTH [3]) | AMARE (AMARE [4]) | ALOMY (ALOMY [5]) | AMARE (AMARE [6]) | STEME (STEME [7]) | VIOTR (VIOTR [8]) | VERPE (VERPE [9]) | ALOMY (ALOMY [10]) | POLCO (POLCO [11]) | ECHCG (ECHCG [12]) | ECHCG (ECHCG [13]) | STEME (STEME [14]) | PHBPU (PHBPU [15]) | PHBPU (PHBPU [16]) | SETVI (SETVI [17]) | VERPE (VERPE [18]) | SETVI (SETVI [19]) | ABUTH (ABUTH [20]) | further results
1 | O=C1c2snc(NC(=O)C(F)(F)C(F)(F)F)c2C=CCN1CC1CCCCC1 [Example I-61] | 100 | 100 | 80 | 100 | 90 | 100 | 100 | 100 | 100 | 90 | 100 | 100 | 90 | 100 | 100 | 90 | 100 | 90 | 80 | 100 | LOLRI (LOLRI): 100; MATIN (MATIN): 100; HORMU (HORMU): 100
2 | O=C(Nc1nsc2c1C=CCN(C1CCCCC1)C2=O)C(F)F [Example I-25] | 100 | 100 | 100 | 100 | 100 | 100 | 100 | 100 | 100 | 100 | 100 | 100 | 100 | 100 | 100 | 100 | 100 | 90 | 100 | 100 | –
3 | Nc1nsc2c1C=CCN(CC1CCCCC1)C2=O [Example I-04, 3-amino-7-(cyclohexylmethyl)-6H-isothiazolo[5,4-c]azepin-8-one] | 100 | 100 | 100 | 100 | 100 | 100 | 100 | 100 | 100 | 100 | 100 | 100 | 100 | 100 | 100 | 100 | 100 | 90 | 90 | 100 | LOLRI (LOLRI): 100; MATIN (MATIN): 100; HORMU (HORMU): 90

— patent US20210002301A1, “NOVEL ISOTHIAZOLO-AZEPINONE BICYCLES, PROCESSES FOR THEIR PREPARATION AND THEIR USE AS HERBICIDES AND/OR PLANT GROWTH REGULATORS” (Bayer Aktiengesellschaft, priority 2017, published 2021)
